These molecules were tested against T1, RORc (Homo sapiens, UniProt P51449) (assay: In vitro RORc ligand binding assay (25-[3H]hydroxycholesterol displacement)). Conditions: IC50, IC50 values for RORc; unit inferred.
T1 sequence (P51449 269-508 limits assumed): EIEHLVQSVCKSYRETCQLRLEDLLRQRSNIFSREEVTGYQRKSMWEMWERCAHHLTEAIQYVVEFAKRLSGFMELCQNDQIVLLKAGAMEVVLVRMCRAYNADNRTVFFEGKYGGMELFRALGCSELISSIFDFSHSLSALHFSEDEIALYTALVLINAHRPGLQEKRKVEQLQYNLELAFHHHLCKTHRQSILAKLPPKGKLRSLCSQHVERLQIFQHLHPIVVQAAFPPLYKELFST
Method: This assay was used to determine a compound's potency in inhibiting activity of RORc by determining, Kiapp, IC50, or percent inhibition values.
On day of the assay, 100 uL of 0.05% CHAPS (in deionized H2O) was added to all wells of the GFB Unifilter plate and allowed soak for 1 h. A wash buffer of 50 mM HEPES (pH 7.4), 150 mM NaCl, and 5 mM MgCl2 was prepared to wash the filter plate. To prepare an assay buffer, BSA was added to the wash buffer to reach 0.01% and DTT was added to reach 1 mM.
The 20× compound stocks were diluted in DMSO with Assay Buffer 4-fold to reach 5× the final test concentration in 25% DMSO (10 uL compound+30 uL Assay Buffer). Solutions were mixed by aspiration several times with a pipette set on 50 uL volume. For the assay, 10 uL of 5× compound stock solutions in 25% DMSO were added to the assay plate in duplicate.
For two point screening, 10 mM stock compound solutions were diluted in DMSO to obtain 200 uM (20× the high test concentration) and then diluted 10-fold further to reach 20 uM (20× the low test concentration). The 20× stocks were diluted 4-fold with Assay Buffer (10 uL compound+30 uL Assay Buffer) to reach 5× the test concentrations (50 uM and 5 uM) and 10 uL were added to two assay plates for the duplicate wells. With each concentration tested on 2 plates, each set of 80 compounds used 4 assay plates (1 uM and 10 uM, with n=2).
For 25-hydroxycholesterol in 25% DMSO/75% Assay Buffer; 10 uL per well was used for NSB samples. Wells for Total Binding and No Receptor sample determination contained 10 uL of 25% DMSO/75% Assay Buffer per well.
Add 20 uL to all wells to reach 6 nM final in the assay.
Stock receptor solution was diluted in assay buffer to obtain 1.5 ug/mL in Assay Buffer. 20 uL was added to all wells. For No R samples, 20 uL Assay Buffer was substituted for receptor solution.
Assay plates were 96-well polypropylene V-bottom plates. 10 uL of 5× compound in 25% DMSO/75% Assay Buffer was added to Test wells. 10 uL of 25% DMSO/75% Assay Buffer was added to Total Binding or No Receptor wells. 10 uL of 5 uM 25-hydroxycholesterol in 25% DMSO/75% Assay Buffer was added to NSB wells. […] 20 uL of 1.5 ug/mL RORc receptor was added to wells (or 40 uL Assay Buffer to No R wells). Following addition to the wells, the plates were incubated 3 h at 25° C.
Using a Packard Filtermate Harvester, the filter plate were washed 4 times following transfer of the incubated samples. Plates were dry-filtered completely (2 h at 50° C. or overnight at room temperature). 50 uL Microscint 0 was added to all wells and read on Topcount protocol Inverted.
For NSB wells, 1 uM 25-hydroxycholesterol was also present.

Structure (SMILES) | IC50
CCOC(=O)/C=C/C1(c2ccc(CN3[C@@H](C)CC[C@H](c4ccccc4)S3(=O)=O)c(F)c2)CC1 [Compound 114, ethyl (E)-3-[1-[3-fluoro-4-[[(3S,6R)-3-methyl-1,1-dioxo-6-phenyl-thiazinan-2-yl]methyl]phenyl]cyclopropyl]prop-2-enoate] | 53.6 nM
CCOC(=O)C[C@H](O)C1(c2ccc(CN3[C@@H](C)CC[C@H](c4ccccc4)S3(=O)=O)c(F)c2)CCOCC1 [Compound 115, ethyl (3S)-3-[4-[3-fluoro-4-[[(3S,6R)-3-methyl-1,1-dioxo-6-phenyl-thiazinan-2-yl]methyl]phenyl]tetrahydropyran-4-yl]-3-hydroxy-propanoate] | 39.5 nM
C[C@H]1CC[C@H](c2ccccc2)S(=O)(=O)N1Cc1ccc(C2([C@@H](O)CCO)CCOCC2)cc1F [Compound 117, (1S)-1-[4-[3-fluoro-4-[[(3S,6R)-3-methyl-1,1-dioxo-6-phenyl-thiazinan-2-yl]methyl]phenyl]tetrahydropyran-4-yl]propane-1,3-diol] | 35.2 nM
C[C@H]1CC[C@H](c2ccccc2)S(=O)(=O)N1Cc1ccc(C2(OC[C@@H](O)CO)CCOCC2)cc1F [Compound 119, (2S)-3-[4-[3-fluoro-4-[[(3S,6R)-3-methyl-1,1-dioxo-6-phenyl-thiazinan-2-yl]methyl]phenyl]tetrahydropyran-4-yl]oxypropane-1,2-diol] | 27.4 nM
C[C@H]1CC[C@H](c2ccccc2)S(=O)(=O)N1Cc1cc(F)c(C2(C#N)CCOCC2)cc1F [Compound 122, 4-[2,5-difluoro-4-[[(3S,6R)-3-methyl-1,1-dioxo-6-phenyl-thiazinan-2-yl]methyl]phenyl]tetrahydropyran-4-carbonitrile] | 26.8 nM
C[C@H]1CC[C@H](c2ccccc2)S(=O)(=O)N1Cc1cc(F)c(C2(C#N)CC2)cc1F [Compound 123, 1-[2,5-difluoro-4-[[(3S,6R)-3-methyl-1,1-dioxo-6-phenyl-thiazinan-2-yl]methyl]phenyl]cyclopropanecarbonitrile] | 22.7 nM
C[C@H]1CC[C@H](c2ccccc2)S(=O)(=O)N1Cc1cc(F)c(C2(C(N)=O)CC2)cc1F [Compound 125, 1-[2,5-difluoro-4-[[(3S,6R)-3-methyl-1,1-dioxo-6-phenyl-thiazinan-2-yl]methyl]phenyl]cyclopropane-carboxamide] | 346 nM
C[C@H]1CC[C@H](c2ccccc2)S(=O)(=O)N1Cc1cc(F)c(C2(CO)CC2)cc1F [Compound 126, [1-[2,5-difluoro-4-[[(3S,6R)-3-methyl-1,1-dioxo-6-phenyl-thiazinan-2-yl]methyl]phenyl]cyclopropyl]methanol] | 49.9 nM
C[C@H]1CC[C@H](c2ccccc2)S(=O)(=O)N1Cc1cc(F)c(C2(C(=O)NCC#N)CC2)cc1F [Compound 128, N-(cyanomethyl)-1-[2,5-difluoro-4-[[(3S,6R)-3-methyl-1,1-dioxo-6-phenyl-thiazinan-2-yl]methyl]phenyl]cyclopropane-carboxamide] | 390 nM
C[C@H]1CC[C@H](c2ccccc2)S(=O)(=O)N1Cc1cc(F)c(C2(CO)CCC(O)CC2)cc1F (stereo partly drawn) [Compound 130, 4-[2,5-difluoro-4-[[(3S,6R)-3-methyl-1,1-dioxo-6-phenyl-thiazinan-2-yl]methyl]phenyl]-4-(hydroxymethyl)cyclohexanol] | 34.7 nM
C[C@H]1CC[C@@H](c2ccccc2)S(=O)(=O)N1Cc1cc(F)c(C2(CO)CCC(O)CC2)cc1F (stereo partly shown) [Compound 131] | 72.8 nM
C[C@H]1CC[C@@H](c2ccccc2)S(=O)(=O)N1Cc1cc(F)c(C2(CO)CCC(O)CC2)cc1F (stereo partly shown) [Compound 132] | 240 nM
C[C@H]1CC[C@H](c2ccccc2)S(=O)(=O)N1Cc1cc(F)c(C2(CO)CCC(n3cnnc3)CC2)cc1F (stereo partly drawn) [Compound 134, [1-[2,5-difluoro-4-[[(3S,6R)-3-methyl-1,1-dioxo-6-phenyl-thiazinan-2-yl]methyl]phenyl]-4-(1,2,4-triazol-4-yl)cyclohexyl]methanol] | 87.9 nM
C[C@H]1CC[C@H](c2ccccc2)S(=O)(=O)N1Cc1cc(F)c(C2(OCC(=O)O)COC2)cc1F [Compound 135, 2-[3-[2,5-difluoro-4-[[(3S,6R)-3-methyl-1,1-dioxo-6-phenyl-thiazinan-2-yl]methyl]phenyl]oxetan-3-yl]oxyacetic acid] | 27.2 nM
C[C@H]1CC[C@H](c2ccccc2)S(=O)(=O)N1Cc1cc(F)c(C2(CCC(N)=O)CC2)cc1F [Compound 139, 3-[1-[2,5-difluoro-4-[[(3S,6R)-3-methyl-1,1-dioxo-6-phenyl-thiazinan-2-yl]methyl]phenyl]cyclopropyl]propanamide] | 23.7 nM
CCOC(=O)CCC1(c2cc(F)c(CN3[C@@H](C)CC[C@H](c4ccccc4)S3(=O)=O)cc2F)CC1 [Compound 140, ethyl 3-[1-[2,5-difluoro-4-[[(3S,6R)-3-methyl-1,1-dioxo-6-phenyl-thiazinan-2-yl]methyl]phenyl]cyclopropyl]propanoate] | 45.7 nM
CC(=O)N1CCC(OCC(N)=O)(c2cc(F)c(CN3[C@@H](C)CC[C@H](c4ccccc4)S3(=O)=O)cc2F)CC1 [Compound 141, 2-[[1-acetyl-4-[2,5-difluoro-4-[[(3S,6R)-3-methyl-1,1-dioxo-6-phenyl-thiazinan-2-yl]methyl]phenyl]-4-piperidyl]oxy]acetamide] | 26 nM
CC(=O)N1CC(OCC(O)CO)(c2cc(F)c(CN3[C@@H](C)CC[C@H](c4ccccc4)S3(=O)=O)cc2F)C1 (stereo partly drawn) [Compound 143, 1-[3-[2,5-difluoro-4-[[(3S,6R)-3-methyl-1,1-dioxo-6-phenyl-thiazinan-2-yl]methyl]phenyl]-3-(2,3-dihydroxypropoxy)azetidin-1-yl]ethanone] | 29.8 nM
CC(=O)N1CCC(OCC(O)CO)(c2cc(F)c(CN3[C@@H](C)CC[C@H](c4ccccc4)S3(=O)=O)cc2F)CC1 (stereo partly drawn) [Compound 144, 1-[4-[2,5-difluoro-4-[[(3S,6R)-3-methyl-1,1-dioxo-6-phenyl-thiazinan-2-yl]methyl]phenyl]-4-(2,3-dihydroxypropoxy)-1-piperidyl]ethanone] | 21.6 nM

The next molecules have a lower IC50 than those just listed; values first:

IC50 | Structure (SMILES)
20.6 nM | C[C@H]1CC[C@H](c2ccccc2)S(=O)(=O)N1Cc1cc(F)c(C2(OCC(O)CO)COC2)cc1F (stereo partly drawn) [Compound 142, 3-[3-[2,5-difluoro-4-[[(3S,6R)-3-methyl-1,1-dioxo-6-phenyl-thiazinan-2-yl]methyl]phenyl]oxetan-3-yl]oxypropane-1,2-diol]
20 nM | C[C@H]1CC[C@H](c2ccccc2)S(=O)(=O)N1Cc1cc(F)c(C2(COCC(N)=O)CC2)cc1F [Compound 127, 2-[[1-[2,5-difluoro-4-[[(3S,6R)-3-methyl-1,1-dioxo-6-phenyl-thiazinan-2-yl]methyl]phenyl]cyclopropyl]methoxy]acetamide]
17.9 nM | CC(=O)N1CCC(OCC(=O)O)(c2cc(F)c(CN3[C@@H](C)CC[C@H](c4ccccc4)S3(=O)=O)cc2F)CC1 [Compound 137, 2-[[1-acetyl-4-[2,5-difluoro-4-[[(3S,6R)-3-methyl-1,1-dioxo-6-phenyl-thiazinan-2-yl]methyl]phenyl]-4-piperidyl]oxy]acetic acid]
17.2 nM | CC(=O)N1CC(OCC(=O)O)(c2cc(F)c(CN3[C@@H](C)CC[C@H](c4ccccc4)S3(=O)=O)cc2F)C1 [Compound 136, 2-[1-acetyl-3-[2,5-difluoro-4-[[(3S,6R)-3-methyl-1,1-dioxo-6-phenyl-thiazinan-2-yl]methyl]phenyl]azetidin-3-yl]oxyacetic acid]
16.6 nM | C[C@H]1CC[C@H](c2ccccc2)S(=O)(=O)N1Cc1ccc(C2([C@H](O)CCO)CCOCC2)cc1F [Compound 118, (1R)-1-[4-[3-fluoro-4-[[(3S,6R)-3-methyl-1,1-dioxo-6-phenyl-thiazinan-2-yl]methyl]phenyl]tetrahydropyran-4-yl]propane-1,3-diol]
16 nM | C[C@H]1CC[C@H](c2ccccc2)S(=O)(=O)N1Cc1ccc(C2(COCC(N)=O)CCOCC2)cc1F [Compound 121]
13 nM | COC(=O)C1(c2ccc(CN3[C@@H](C)CC[C@H](c4ccccc4)S3(=O)=O)c(F)c2)CCN(C(C)=O)CC1 [Compound 124, methyl 1-acetyl-4-[3-fluoro-4-[[(3S,6R)-3-methyl-1,1-dioxo-6-phenyl-thiazinan-2-yl]methyl]phenyl]piperidine-4-carboxylate]
12.2 nM | CCOC(=O)C[C@@H](O)C1(c2ccc(CN3[C@@H](C)CC[C@H](c4ccccc4)S3(=O)=O)c(F)c2)CCOCC1 [Compound 116, ethyl (3R)-3-[4-[3-fluoro-4-[[(3S,6R)-3-methyl-1,1-dioxo-6-phenyl-thiazinan-2-yl]methyl]phenyl]tetrahydropyran-4-yl]-3-hydroxy-propanoate]
8.1 nM | C[C@H]1CC[C@H](c2ccccc2)S(=O)(=O)N1Cc1cc(F)c(C2(CO)CCC(O)CC2)cc1F (stereo partly drawn) [Compound 129, 4-[2,5-difluoro-4-[[(3S,6R)-3-methyl-1,1-dioxo-6-phenyl-thiazinan-2-yl]methyl]phenyl]-4-(hydroxymethyl)cyclohexanol]
6.1 nM | COC(=O)C1(c2cc(F)c(CN3[C@@H](C)CC[C@H](c4ccccc4)S3(=O)=O)cc2F)CCC(=O)CC1 [Compound 120, methyl 1-[2,5-difluoro-4-[[(3S,6R)-3-methyl-1,1-dioxo-6-phenyl-thiazinan-2-yl]methyl]phenyl]-4-oxo-cyclohexanecarboxylate]
5.2 nM | C[C@H]1CC[C@H](c2ccccc2)S(=O)(=O)N1Cc1cc(F)c(C2(CO)CCC(n3cnnc3)CC2)cc1F (stereo partly drawn) [Compound 133, [1-[2,5-difluoro-4-[[(3S,6R)-3-methyl-1,1-dioxo-6-phenyl-thiazinan-2-yl]methyl]phenyl]-4-(1,2,4-triazol-4-yl)cyclohexyl]methanol]
2.6 nM | C[C@H]1CC[C@H](c2ccccc2)S(=O)(=O)N1Cc1cc(F)c(C2(OCC(N)=O)COC2)cc1F [Compound 138, 2-[3-[2,5-difluoro-4-[[(3S,6R)-3-methyl-1,1-dioxo-6-phenyl-thiazinan-2-yl]methyl]phenyl]oxetan-3-yl]oxyacetamide]

Reference: patent publication US10131644B2, “Aryl sultam derivatives as RORc modulators” (Genentech, Inc., priority 2014, dated 2018)
